By viability is commonly meant the share of living cells, or the viability signal relative to a control. High values mean better survival, low ones a greater loss of cells. As a reminder, the IC50 is the concentration that inhibits the measured activity by half. What is called CC50 is the concentration giving 50% cytotoxicity.

Several values for one entry are separate records, joined by “and”; a condition that tells them apart may be missing. Equal entries are not always repeated. Entries after “also recorded” stand apart in the source; their conditions may differ. Where two headings read alike, the source gives them in different places.

Data set [1] has as its system T. cruzi CAI/72 strain. The data set can be described thus: Antiparasitic activity in C2C12 cells infected with T. cruzi CAI/72 (image-based assay). The format is cell-based.
A further data set deals with T1, recombinant Cz (cruzain) (Trypanosoma cruzi, UniProt P25779).
T1 construct: Cz was expressed and purified as described in da Silva et al; made in house
The data set can be described thus: biochemical. As to conditions: for Cz inhibition (%): 10 µM; for inhibition at 10 µM: read-out: Cz inhibition (%), 10 µM; for SICz: ratio between IC50 hCatL and IC50 Cz. An outline of the steps:
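Cruzain (1 nM) was preincubated 10 min with compound in 0.1 M sodium acetate pH 5.5, 1 mM DTT, 0.01% Triton X-100, then 2.5 μM Z-FR-AMC (final) was added. Fluorescence (360/460 nm) was read for 10 min at 25 °C and normalized to DMSO.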

The next data set concerns C2C12 cells. Description: Host cell cytotoxicity (C2C12 viability). In kind it is cell-based, Mouse. As to conditions: 10 µM; < 50% viability considered cytotoxic. An outline of the steps:
(§1)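 Mouse C2C12 myoblasts co-seeded with CAI/72 trypomastigotes (10:1 parasite:cell) on compound, 48 h at 37 °C, 5% CO2. DAPI-stained fixed cells imaged; parasites per host cell normalized to 40 μM BNZ and DMSO. EC50 and C2C12 viability from dose-response curves, three biological replicates in triplicate.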

A short description of data set [2]: DPPH radical scavenging (antioxidant) assay. The following applies: for Percentage of inhibited DPPH (2 h): mean ± SEM. Here is the method: The antioxidant capacity of the selected Se compound was tested using the DPPH assay described by Astrain-Redin. The compound was tested at three different concentrations (0.06, 0.03, and 0.015 mg/mL) and we used two positive controls: ascorbic acid (ASC) and trolox (TRO). A solution of DPPH (2,2-diphenyl-1-picrylhydrazyl) in methanol (0.04 mg/mL, preserved in the dark) was prepared and 100 μL of this stock solution was added to 100 μL of tested compound solution. The color change, from purple (radical) to yellow (reduced), was measured at 517 nm at different time points (0, 5, 15, 30, 60, 90, and 120 min). All measurements were carried out in triplicate and recorded on a BioTek PowerWave XS spectrophotometer (Biotek). Data were collected using BioTek Gen5Microplate reader and Imager software (Agilent, version 3.12). Results are expressed as a percentage of inhibited DPPH ± standard error of the mean (SEM), calculated using the following formula %inhibitedDPPH=Acontrol−Asample/Acontrol×100 where A control refers to the absorbance of the negative control and A sample refers to the absorbance of the tested compound.
(In general: The DPPH test is a chemical assay of radical scavenging.)

Data set [3] in a line: Compound stability (authors' observation). As to conditions: reason for discontinuation. The format is physicochemical.
The nature of data set [4]: Host cell cytotoxicity (C2C12 viability). The format is cell-based, Mouse. As to conditions: mouse; for viability at 48 h, 10 µM: < 50% viability considered cytotoxic; for CC50 at 48 h: viability calculated at 10 μM. An outline of the steps:
as §1

For data set [5], the system named is Cz isolated and purified from Tulahuen 2 strain epimastigotes. The arrangement: method as in Jasinski et al. The following applies: different assay conditions and enzyme origin; ref Jasinski et al.; cited from earlier work.
Data set [6] deals with T2, Recombinant human cathepsin L (hCatL) (Homo sapiens, UniProt P07711).
T2 construct: purchased R&D Systems 952-CY
Description: Human cathepsin L inhibition assay (Z-FR-AMC substrate). The format is biochemical. Here is the method: Compounds were screened at 10 μM. […] The experiment was performed for 30 min.
All experiments were accomplished in a 384-well black microplate, using a Synergy HTX (Biotek) plate reader at 25 °C with absorption/emission wavelengths of 360/460 nm. All assays were performed in triplicate wells and DMSO was used as a vehicle control. Enzymatic activity was measured and normalized to DMSO controls, and the inhibitor E-64 (10 μM) was used as a positive control for all assays. All experiments were performed in triplicates, with at least two independent assays (n = 6 data points). IC50 values were determined through nonlinear regression. Obtained data were treated and analyzed using GraphPad Prism 9.0 (GraphPad Software, La Jolla, California).

Data set [7] relates to T. cruzi CAI/72 strain. Description: Antiparasitic activity in C2C12 cells infected with T. cruzi CAI/72 (image-based assay). The format is cell-based. As to conditions: Trypanosoma cruzi, read-out: Anti-Tc CAI/72 activity (%).
[8] abbreviates: 10 µM, C2C12 infected cells, read-out: Anti-Tc CAI/72 activity (%).
[9] abbreviates: C2C12 myoblast cells infected with trypomastigotes.

T1 sequence (P25779 123-337 limits assumed): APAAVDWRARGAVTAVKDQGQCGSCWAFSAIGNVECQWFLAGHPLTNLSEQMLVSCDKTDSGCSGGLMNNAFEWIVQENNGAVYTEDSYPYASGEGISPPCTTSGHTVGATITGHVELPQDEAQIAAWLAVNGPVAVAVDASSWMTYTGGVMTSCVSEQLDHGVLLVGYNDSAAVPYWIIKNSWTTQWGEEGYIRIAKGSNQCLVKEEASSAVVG
T2 sequence (P07711 114-333): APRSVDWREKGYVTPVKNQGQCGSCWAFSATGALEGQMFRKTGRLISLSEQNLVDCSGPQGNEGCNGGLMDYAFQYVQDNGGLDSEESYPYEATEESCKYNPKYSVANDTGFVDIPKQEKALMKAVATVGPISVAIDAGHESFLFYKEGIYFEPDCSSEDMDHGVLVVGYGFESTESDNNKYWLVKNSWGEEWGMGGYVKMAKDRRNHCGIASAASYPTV

For the compound “(E)-2-(1-(Thiophen-3-yl)ethylidene)hydrazine-1-carbothioamide [Compound S1l]”, in the data set on T. cruzi CAI/72 strain [1] (setting [8]), the inhibition worked out at 10.9%. For the same compound, the “Cz inhibition (%)” value on recombinant Cz (cruzain) came out at 62.83%. Further, the “C2C12 viability (%)” value in the data set with C2C12 cells is reported as >100%.

Turning to `Cc1c(C)c2c(c(C)c1O)CCC(C)(C(=O)O)O2` (stereo not shown) [TRO, trolox], the “Percentage of inhibited DPPH (2 h)” value in data set [2] (0,03 mg/ml) is listed as 79,33 ± 0,88%; in data set [2] (0,06 mg/ml), 79,67 ± 0,67%; in data set [2] (0,015 mg/ml), 79,33 ± 1,33%. Further, in [2] (0.015 mg/mL), the “time to reach the plateau of the DPPH kinetic curve” value is given as 5 min. Moreover, the “percentage of activity in the DPPH kinetic curve” value in [2] (0.015 mg/mL, kinetic curve over 2 h) amounted to 80%.

With `O=C1O[C@H]([C@@H](O)CO)C(O)=C1O` [ASC, ascorbic acid], the figures for the “Percentage of inhibited DPPH (2 h)” value in data set [2] (0,03 mg/ml), in data set [2] (0,06 mg/ml) and in data set [2] (0,015 mg/ml) were 80,33 ± 0,33%, 80,33 ± 0,67% and 65,33 ± 2,03%, respectively. In data set [2] (0.015 mg/mL), the “time to reach the plateau of the DPPH kinetic curve” value amounted to 0 min.

As for “(E)-2-(1-((3r,5r,7r)-Adamantan-1-yl)ethylidene)hydrazine-1-carbothioamide [Compound S1q]”, in the data set on T. cruzi CAI/72 strain [1] (setting [8]), the inhibition is 38.7%. Further, at recombinant Cz (cruzain), the “Cz inhibition (%)” value is 5.06%. In addition, the “C2C12 viability (%)” value with C2C12 cells is >100%.

For `C/C(=N\NC(N)=[Se])c1ccc(C#N)cc1` [Se1e, (E)-2-(1-(4-Cyanophenyl)ethylidene)hydrazine-1-carboselenoamide], the inhibition at 10 µM in the data set on T. cruzi CAI/72 strain [1] (Trypanosoma cruzi, C2C12, read-out: Anti-Tc CAI/72 activity (%)) amounted to 57.1%; at recombinant Cz (cruzain), 104%. In addition, the “stability of the compound” value in data set [3] is “stability problems; also recorded: lack of stability”. Also, the viability at 48 h, 10 µM in data set [4] is > 100%.

In the case of “(E)-2-(1-(4-Cyanophenyl)ethylidene)hydrazine-1-carbothioamide [Compound S1e]”, the inhibition in the data set on T. cruzi CAI/72 strain [1] (setting [8]) worked out at 31.6%. In addition, the “Cz inhibition (%)” value on recombinant Cz (cruzain) was 98.77%. In the data set with C2C12 cells, the “C2C12 viability (%)” value was >100%.

Consider `C/C(=N\NC(N)=S)c1cccc(Cl)c1` [Compound S1i, (E)-2-(1-(3-Chlorophenyl)ethylidene)hydrazine-1-carbothioamide], for which the inhibition at 10 µM in the data set with T. cruzi CAI/72 strain [1] (Trypanosoma cruzi, 10 µM, C2C12 infected cells, read-out: Anti-Tc CAI/72 activity (%)) was 56.2%; on recombinant Cz (cruzain) it was > 85%; in data set [6] (10 µM), 97.2%. Besides, the EC50 in the data set with T. cruzi CAI/72 strain [1] (Trypanosoma cruzi, intracellular amastigotes in C2C12 cells, 48 h, mean of three experiments in triplicate (n = 9) ± SD, read-out: EC50 Tc CAI/72) was ~10000 nM. Besides, the IC50 was 29900 nM in data set [5]; 2 nM and 3 nM on recombinant Cz (cruzain) (each of two biological replicates in triplicate, read-out: IC50 Cz, single biological replicate (Figure 3)); 2.5 ± 0.51 nM at recombinant Cz (cruzain) (mean of two experiments in triplicate (n = 6) ± SEM, read-out: IC50 Cz); 58 nM and 120 nM in [6] (each of two biological replicates in triplicate, read-out: IC50 hCatL, single biological replicate (Figure 4)); 89.4 ± 31.4 nM in [6] (mean of two experiments in triplicate (n = 6) ± SEM, read-out: IC50 hCatL). Further, the “Cz inhibition (%)” value at recombinant Cz (cruzain) was determined as 100.00%. The SICz at recombinant Cz (cruzain) is 35.76; at recombinant Cz (cruzain) (listed as S 1i), 36. In addition, the viability at 48 h, 10 µM in [4] (setting [9]) is > 100%. Moreover, the half-maximal cytotoxic concentration (CC50) at 48 h in data set [4] (setting [9]) was > 10000 nM.

Take `CN1CCN(C(=O)N[C@@H](Cc2ccccc2)C(=O)N[C@H](/C=C/S(=O)(=O)c2ccccc2)CCc2ccccc2)CC1` [Compound K777, reference compound]: in the data set on T. cruzi CAI/72 strain [7], the inhibition at 3 µM was determined as 61%. Besides, the SICz at recombinant Cz (cruzain) is 0.13. Also, in data set [4] (setting [9]), the viability at 48 h, 10 µM is > 100% and the CC50 at 48 h is > 10000 nM.

Source of the values: article PMC12320831, “Synthesis and Biological Evaluation of New Chalcogen Semicarbazone (S, Se) and Their Azole Derivatives against Chagas Disease” (Journal of Medicinal Chemistry, 2024).
